From patent US12318375B2, “Method of treatment with tradipitant” (Vanda Pharmaceuticals Inc., priority 2015, dated 2025)

Tests used:
[1] = system: chronic pruritus in patients with atopic dermatitis; assay: Phase II proof of concept clinical study VP-VLY-686-2101: efficacy on pruritus measures; assay type: in vivo, human; conditions: for VAS Average change (primary): tradipitant 100 mg qd oral in the evening
Experimental: A phase II proof of concept clinical study (Study ID VP-VLY-686-2101, “Proof of Concept of VLY-686 in Subjects With Treatment-Resistant Pruritus Associated With Atopic Dermatitis”) was conducted, investigating the safety and efficacy of tradipitant as a monotherapy in the treatment of chronic pruritus in patients with atopic dermatitis.
In the study, patients with a Visual Analog Scale (VAS) score of greater than 70 mm during one of the two days preceding inclusion into the study were randomized to receive orally either 100 mg of tradipitant (N=34) or placebo (N=35) once a day in the evening. In the tradipitant arm of the study, tradipitant was orally administered to patients in capsules with standard excipients in an amount of 100 mg in the evening. Clinical assessments were made after 3 or 4 weeks of daily treatment, or at both 3 weeks and 4 weeks, each assessment being done in the morning of the day after last treatment or in the afternoon of the day after last treatment. The tradipitant was administered in an immediate release form comprising tradipitant and pharmaceutically acceptable excipients in a capsule. The tradipitant particle size was approximately: D10: <5 um, D50: <10 um, and D90: <25 um, wherein D10 means that 10% of the particles are of the indicated mean particle size, D50 means that 50% of the particles are of the indicated mean particle size, and D90 means that 90% of the particles are of the indicated mean particle size.
Baseline VAS scores were 76.1 and 77.2 for the tradipitant and placebo arms respectively. Efficacy was evaluated through a number of clinical research instruments. In addition, at the time of efficacy evaluation blood samples were collected for PK analysis in order to determine the plasma levels of tradipitant.

[2] = Example 2: plasma concentration of tradipitant in healthy subjects (85 mg qd, then Q12H); assay type: in vivo, human
Experimental: In one study, healthy subject participants were orally administered 85 mg tradipitant on study day 3, and then 85 mg tradipitant Q12H on study days 4-16. Plasma concentration levels of tradipitant were measured on each of day 3, day 7, and day 11.
This study illustrated that administration of 85 mg tradipitant qd (on day 3) produced an average plasma concentration over hours 0-12 that was about 50% of the plasma concentration observed in the PM group in Example 1. On days 7 and 11, the average plasma concentration over hours 0-12 following administration of 85 mg bid (specifically, Q12H) tradipitant was about 150% of the plasma concentration observed in the PM group in Example 1. The average plasma concentration over hours 0-12 at each point was determined by dividing the AUC for hours 0-12 (in (hr.)×(ng/mL)) by 12 hours.

O=C(c1ccccc1Cl)c1cccnc1-c1nnn(Cc2cc(C(F)(F)F)cc(C(F)(F)F)c2)c1-c1ccncc1 [Tradipitant, {2-[1-(3,5-Bistrifluoromethylbenzyl)-5-pyridin-4-yl-1H-[1,2,3]triazol-4-yl]-pyridin-3-yl}-(2-chlorophenyl)-methanone]
endpoints that correspond to the underlying disease (SKINDEX, SCORAD objective, EASI and DLQI) compared with placebo ([1]; 100 mg qd, 4-week study): did not show any significant difference from placebo
VAS Average change (primary) ([1]; AM group (morning assessment), N = 18, after 3 or 4 weeks): −54
CGIC, Diff tradipitant vs placebo ([1]; AM group, 100 mg qd): −1.15
DLQI change, Diff tradipitant vs placebo ([1]; AM group, 100 mg qd): 0.35
PBI, Diff tradipitant vs placebo ([1]; AM group, 100 mg qd): 0.74
SCORAD change, Diff tradipitant vs placebo ([1]; AM group, 100 mg qd): −5.23
VAS Worst change, Diff tradipitant vs placebo ([1]; AM group, 100 mg qd): −21.9
VRS change, Diff tradipitant vs placebo ([1]; AM group, 100 mg qd): −0.79
PBI ([1]; AM group, 100 mg qd, N = 18): 1.47
VAS Average change, Diff tradipitant vs placebo ([1]; AM group, 100 mg qd, tradipitant N = 18 vs placebo N = 17): −23.7
VAS Average change (primary) ([1]; PM group (afternoon assessment), N = 13, after 3 or 4 weeks): −28.8
CGIC, Diff tradipitant vs placebo ([1]; PM group, 100 mg qd): 0.19
DLQI change, Diff tradipitant vs placebo ([1]; PM group, 100 mg qd): −1.89
PBI, Diff tradipitant vs placebo ([1]; PM group, 100 mg qd): −0.39
SCORAD change, Diff tradipitant vs placebo ([1]; PM group, 100 mg qd): 0.88
VAS Worst change, Diff tradipitant vs placebo ([1]; PM group, 100 mg qd): 8.99
VRS change, Diff tradipitant vs placebo ([1]; PM group, 100 mg qd): −0.13
efficacy analysis of pruritus measures compared with placebo ([1]; PM group, 100 mg qd): no significant differences between tradipitant and placebo
PBI ([1]; PM group, 100 mg qd, N = 13): 1.01
VAS Average change, Diff tradipitant vs placebo ([1]; PM group, 100 mg qd, tradipitant N = 13 vs placebo N = 11): 5.82
VAS change from baseline compared with placebo (pre-specified primary endpoint) ([1]; all patients, 100 mg qd): no statistical difference from placebo
average plasma concentration over hours 0-12 (AUC 0-12 divided by 12 hours) relative to PM group in Example 1 ([2]; day 3, 85 mg qd oral): about 50%
average plasma concentration over hours 0-12 (AUC 0-12 divided by 12 hours) relative to PM group in Example 1 ([2]; days 7 and 11, 85 mg bid (Q12H) oral): about 150%
